Source: patent publication US8513238B2 (Hoffmann-La Roche Inc., priority 2010, dated 2013)
Structures can show the parent of a compound that is named as a salt.

These compounds were tested against T1, human V1a receptor (Homo sapiens, UniProt P37288) (assay: human V1a receptor binding (3H-Vasopressin SPA, HEK293 membranes)). Settings: membranes of HEK293 cells transiently transfected with human V1a receptor, Ki by Cheng-Prussoff, read-out: pKi (hV1a) (converted).
T1 construct: expressed in transfected cells; host or cells: HEK293 cells, transiently transfected; membranes prepared
T1 sequence (P37288 whole entry): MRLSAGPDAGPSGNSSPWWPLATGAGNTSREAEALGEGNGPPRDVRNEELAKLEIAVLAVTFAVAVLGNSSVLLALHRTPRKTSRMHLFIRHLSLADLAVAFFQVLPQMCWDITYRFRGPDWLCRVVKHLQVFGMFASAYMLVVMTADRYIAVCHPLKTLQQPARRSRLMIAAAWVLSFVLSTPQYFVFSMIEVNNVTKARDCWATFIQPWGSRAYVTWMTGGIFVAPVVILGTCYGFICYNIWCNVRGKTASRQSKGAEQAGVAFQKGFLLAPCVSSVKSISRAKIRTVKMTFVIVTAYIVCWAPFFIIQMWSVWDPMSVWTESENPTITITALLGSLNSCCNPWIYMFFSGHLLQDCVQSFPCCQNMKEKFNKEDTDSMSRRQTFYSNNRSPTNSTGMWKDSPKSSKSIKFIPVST
In short: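 HEK293 membranes transiently expressing cloned human V1a receptor, bound to yttrium silicate SPA beads in Tris/NaCl/KCl/CaCl2/MgCl2 buffer. Test compounds in 2% DMSO competed with 3H-vasopressin (4 nM solution added) for 1 h at room temperature; non-specific binding defined with cold vasopressin. IC50 from non-linear fit, Ki via Cheng-Prusoff.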

Compound	Ki
Cc1cc([C@H]2CC[C@H](c3nnc4n3-c3ccc(Cl)cc3CN(S(=O)(=O)N(C)C)C4)CC2)no1 [Example 35, trans-8-Chloro-1-[4-(5-methyl-isoxazol-3-yl)-cyclohexyl]-4H,6H-2,3,5,10b-tetraaza-benzo[e]azulene-5-sulfonic acid dimethylamide]	0.501 nM
CC(C)c1nc([C@H]2CC[C@@H](c3nnc4n3-c3ccc(Cl)cc3CNC4)CC2)no1 [Example 95, cis-8-Chloro-1-[4-(5-isopropyl-[1,2,4]oxadiazol-3-yl)-cyclohexyl]-5,6-dihydro-4H-2,3,5,10b-tetraaza-benzo[e]azulene hydrochloride]	2950 nM
CCc1cc([C@H]2CC[C@H](c3nnc4n3-c3ccc(Cl)cc3CN(C(=O)OC(C)(C)C)C4)CC2)no1 [Example 49, trans-8-Chloro-1-[4-(5-ethyl-isoxazol-3-yl)-cyclohexyl]-4H,6H-2,3,5,10b-tetraaza-benzo[e]azulene-5-carboxylic acid tert-butyl ester]	4.07 nM
Cc1onc([C@H]2CC[C@H](c3nnc4n3-c3ccc(Cl)cc3CN(C(=O)OC(C)(C)C)C4)CC2)c1Cl [Example 42, trans-8-Chloro-1-[4-(4-chloro-5-methyl-isoxazol-3-yl)-cyclohexyl]-4H,6H-2,3,5,10b-tetraaza-benzo[e]azulene-5-carboxylic acid tert-butyl ester]	0.398 nM
CC(C)(C)OC(=O)N1Cc2cc(Cl)ccc2-n2c(nnc2[C@H]2CC[C@@H](n3cccn3)CC2)C1 [Example 112, cis-8-Chloro-1-(4-pyrazol-1-yl-cyclohexyl)-4H,6H-2,3,5,10b-tetraaza-benzo[e]azulene-5-carboxylic acid tert-butyl ester]	75.9 nM
CCc1cc([C@H]2CC[C@H](c3nnc4n3-c3ccc(Cl)cc3CNC4)CC2)no1 [Example 52, trans-8-Chloro-1-[4-(5-ethyl-isoxazol-3-yl)-cyclohexyl]-5,6-dihydro-4H-2,3,5,10b-tetraaza-benzo[e]azulene hydrochloride]	6.31 nM
Cc1nc([C@H]2CC[C@H](c3nnc4n3-c3ccc(Cl)cc3CNC4)CC2)sc1Cl [Example 102, trans-8-Chloro-1-[4-(5-chloro-4-methyl-thiazol-2-yl)-cyclohexyl]-5,6-dihydro-4H-2,3,5,10b-tetraaza-benzo[e]azulene]	3.8 nM
CC(=O)N1Cc2cc(Cl)ccc2-n2c(nnc2[C@H]2CC[C@H](c3cc(C)on3)CC2)C1 [Example 31, trans-1-{8-Chloro-1-[4-(5-methyl-isoxazol-3-yl)-cyclohexyl]-4H,6H-2,3,5,10b-tetraaza-benzo[e]azulen-5-yl}-ethanone]	1.74 nM
Cc1onc([C@H]2CC[C@H](c3nnc4n3-c3ccc(Cl)cc3CN(C)C4)CC2)c1Cl [Example 44, trans-8-Chloro-1-[4-(4-chloro-5-methyl-isoxazol-3-yl)-cyclohexyl]-5-methyl-5,6-dihydro-4H-2,3,5,10b-tetraaza-benzo[e]azulene]	0.603 nM
CNCCN1Cc2cc(Cl)ccc2-n2c(nnc2[C@H]2CC[C@H](c3cc(C)on3)CC2)C1 [Example 30, trans-(2-{8-Chloro-1-[4-(5-methyl-isoxazol-3-yl)-cyclohexyl]-4H,6H-2,3,5,10b-tetraaza-benzo[e]azulen-5-yl}-ethyl)-methyl-amine]	25.1 nM
Cc1cc(C)n([C@H]2CC[C@H](c3nnc4n3-c3ccc(Cl)cc3CN(C)C4)CC2)n1 [Example 117, trans-8-Chloro-1-[4-(3,5-dimethyl-pyrazol-1-yl)-cyclohexyl]-5-methyl-5,6-dihydro-4H-2,3,5,10b-tetraaza-benzo[e]azulene]	6.92 nM
Cc1cnc([C@H]2CC[C@H](c3nnc4n3-c3ccc(Cl)cc3CN(C(=O)OC(C)(C)C)C4)CC2)o1 [Example 7, trans-8-Chloro-1-[4-(5-methyl-oxazol-2-yl)-cyclohexyl]-4H,6H-2,3,5,10b-tetraaza-benzo[e]azulene-5-carboxylic acid tert-butyl ester]	0.603 nM
Cc1nn([C@H]2CC[C@H](c3nnc4n3-c3ccc(Cl)cc3CN(C)C4)CC2)c(C)c1C [Example 120, trans-8-Chloro-1-[4-(3,4,5-trimethyl-pyrazol-1-yl)-cyclohexyl]-5-methyl-5,6-dihydro-4H-2,3,5,10b-tetraaza-benzo[e]azulene]	1.95 nM
Cc1nc([C@H]2CC[C@H](c3nnc4n3-c3ccc(Cl)cc3CN(C)C4)CC2)sc1Cl [Example 103, trans-8-Chloro-1-[4-(5-chloro-4-methyl-thiazol-2-yl)-cyclohexyl]-5-methyl-5,6-dihydro-4H-2,3,5,10b-tetraaza-benzo[e]azulene]	1.58 nM
Cc1nc([C@H]2CC[C@H](c3nnc4n3-c3ccc(Cl)cc3CNC4)CC2)no1 [Example 73, trans-8-Chloro-1-[4-(5-methyl-[1,2,4]oxadiazol-3-yl)-cyclohexyl]-5,6-dihydro-4H-2,3,5,10b-tetraaza-benzo[e]azulene hydrochloride]	15.8 nM
Cc1nsc([C@H]2CC[C@H](c3nnc4n3-c3ccc(Cl)cc3CN(C)C4)CC2)n1 [Example 71, trans-8-Chloro-5-methyl-1-[4-(3-methyl-[1,2,4]thiadiazol-5-yl)-cyclohexyl]-5,6-dihydro-4H-2,3,5,10b-tetraaza-benzo[e]azulene]	15.1 nM
CC(C)(C)OC(=O)N1Cc2cc(Cl)ccc2-n2c(nnc2[C@H]2CC[C@H](c3nccs3)CC2)C1 [Example 13, trans-8-Chloro-1-(4-thiazol-2-yl-cyclohexyl)-4H,6H-2,3,5,10b-tetraaza-benzo[e]azulene-5-carboxylic acid tert-butyl ester]	1 nM
